Measurements taken from patent US7091238B1, “Thienylhydrazon with digitalis-like properties (positive inotropic effects)” (University of Maryland, priority 1999, dated 2006).

Experiments:
[1] = test system: isolated dog hearts; test: Intraventricular and aortic pressure in isolated dog hearts under pre-load (Langendorff's method); conditions: compared to control or wash out
Text: Predictive tests can also be performed on isolated hearts of animals. Testing intraventricular and arterial pressure in isolated dog hearts, under pre-load, is an animal model for human congestive heart disease, as is well known in the art. This is called Langendorff's method. It allows examination of therapeutic strategies to treat congestive heart disease. When dog hearts were so tested, LASSBio-294 treated hearts achieved a 50% increase in intraventricular and aortic pressure compared to control or wash out after treatment. […] These tests predict that the invention has utility as a medicament in the treatment of congestive heart failure (Curtis, M. J., (1998) Cardiovasc. Res. 39, 194–21, incorporated expressly by reference herein).

[2] = test system: sarcoplasmic reticulum of cardiac muscle fibers; test: Caffeine-induced contracture of saponin-treated left ventricular fibers (Ca2+ uptake/storage by sarcoplasmic reticulum); set-up: species or system Wistar rats
Procedure: FIG. 7. Bundles of left ventricular fibers were treated with saponin and exposed to 0.5 mM CaCl2 to enable maximal tension development (Po). The contracture initiated by caffeine (20 mM) was measured after treatment of the sarcoplasmic reticulum (SR) with a solution of pCa 6.6 in the absence or presence of LASSBio-294 (100 μM0 for 0.5, 1.0 and 5.0 min. N=6. Calibration: Vertical, 10 mm=20 mg load; Horizontal, 10 mm=40 sec.
FIG. 8. Contracture induced by caffeine in relation to loading of the sarcoplasmic reticulum with a solution of pCa 6.6.
FIG. 9. The contractual responses were obtained during exposure to 20 mM caffeine after loading of the sarcoplasmic reticulum with pCA 6.6 in the absence and the presence of LASSBio-294.
FIG. 11. Concentration-response relationship for contracture induced by caffeine in the presence of 100 μM LASSBio-294. *p<0.01.
b. Graphic representation of the tests in FIG. 7 showing the effect of LASSBio-294 on uptake of Ca^2+ by sarcoplasmic reticulum in isolated cardiac muscle with sarcolemma removed. FIG. 9 illustrates the effect of LASSBio-294 on tension in isolated cardiac muscle with sarcolemma removed was measured. Measurement of contraction induced by caffeine, as a function concentration of LASSBio-294 in bathing solution. FIG. 9 is a graphic representation of the effect of increasing concentrations of LASSBio-294 between 0 and 20 μM. […] FIG. 12 illustrates the effect of LASSBio-294 on sensitivity of cardiac fibers to calcium. Calcium levels can induce isometric twitch. […] FIG. 13 provides a graphic representation of data in FIG. 12. General Method
Bundles of left ventricular muscle (130 μm diameter and 1–2 mm in thickness) from Wistar rats were dissected out and mounted for measurement of isometric tension. The muscles were treated with saponin solution (0.5%) for 5 minutes to […] the permeability of the sarcolemma. The membranes of the SR were then […] with Triton X-100 (1% v/v) with the objective of investigating the effects of LASSBio-294 on the sensitivity of the contractile system Ca^2+. […] Caffeine is used to elicit contraction in muscle. Comparison of caffeine alone to caffeine in the presence of LASSBio-294 was measured.

[3] = Toxicity study: body weight after injection; assay type: in vivo, mice; conditions: vs saline and solvent vehicle controls, 1–15 days of treatment
Procedure: b. Rats were weighed before and after treatment with LASSBio 204. […] Six rats were examined in each group, measurements were made after 1–15 days of treatment. […] Mice were injected with LASSBio-294 and their blood examined for cell changes. Experimental groups received 2 or 10 mg/kg of drug. […] Table 4 lists blood chemistry analysis of mice treated with LASSBio-294. Experimental groups received 2 or 10 mg/kg of drug. Controls were saline and solvent. […] The low values of glucose found could be due to an artifact of the technique, glucose being a byproduct of hemolysis. […] General Method

SMILES: O=C(NN=Cc1cccs1)c1ccc2c(c1)OCO2 [LASSBio-294, 3,4-methylenedioxybenzoyl-2-thienylhydrazone]
- increase in intraventricular and aortic pressure [1]: 50%
- uptake of Ca^2+ by the sarcoplasmic reticulum ([2]; 100 μM, loading at pCa 6.6, 20 mM caffeine contracture): increases uptake of Ca^2+
- response to caffeine as a function of compound concentration ([2]; 20 mM caffeine, concentrations between 0 and 20 μM): increases until 10 μM
- contraction (isometric tension) elicited by caffeine ([2]; caffeine 0.05 to 10 mM, 100 μM compound vs control): increased over control at all concentrations
- storage of Ca^2+ by the sarcoplasmic reticulum ([2]; cardiac muscle fibers): increases the storage of Ca^2+
- body weight [3]: unaffected
- body weight ([3]; listed as LASSBio294): no change in weight
